Laboratory results: PMC5893597, “Structural mechanism for nucleotide-driven remodeling of the AAA-ATPase unfoldase in the activated human 26S proteasome” (Nature Communications, 2018)

Tested on: T1, human 26S proteasome AAA-ATPase heterohexamer (Rpt1-6) in the holoenzyme
T1 construct: gene PSMC2; endogenous subunits in doubly capped 26S holoenzyme (28-subunit CP, 19-subunit RPs)
Test: cryo-EM structure
Format: binding
Details: 1 mM ATP-γ-S, 1 mM MgCl2, pH 7.5; Walker A nucleotide sites of Rpt subunits

## Nc1ncnc2c1ncn2[C@@H]1O[C@H](COP(=O)(O)OP(=O)(O)OP(O)(O)=S)[C@@H](O)[C@H]1O [ATP-γ-S]
  cryo-EM structure: ATP-γ-S was modeled into the nucleotide densities of four Rpt subunits in each state
